Results as given in PMC11218446, “Antibacterial efficacy and membrane mechanism of action of the Serratia-derived non-ionic lipopeptide, serrawettin W2-FL10” (Microbiology Spectrum, 2024).
Values joined by “and” are separate entries in the source; they are usually repeats but may differ in a detail not shown here. Equal values may be shown once.

What was measured:
E. faecalis S1 = experiment: Broth microdilution assay (OD 600 nm); type: cell-based, Enterococcus faecalis
Procedure: Serrawettin W2-FL10 (95% pure) was tested for antibacterial activity using a broth microdilution susceptibility assay ([6]), with melittin included as an antibiotic control. The serrawettin W2-FL10 was prepared in 70% MeCN to 1.00 mg/mL, from which aliquots were prepared using 70% MeCN to a concentration of 50 µg/mL or 500 µg/mL, while aliquots of melittin were prepared using analytical quality H2O to 128 µg/mL. Fifty microliters of the respective W2-FL10 aliquots or melittin were dispensed into a clear 96-well plate and a microdilution (in 70% MeCN for W2-FL10 or analytical quality H2O for melittin) was performed within the plate. The plate was air-dried to remove the solvent and placed in a desiccator with chloroform for 20 min for sterilization.
All the cultures (inoculated into 5 mL MHB, or 5 mL TSB for Listeria and Enterococcus strains) were incubated at 37°C to reach an optical density (OD) of 0.4 at 600 nm (∼10^7 CFU/mL). A 1:20 dilution of the test strain (final concentration of ∼10^5 CFU/mL) was prepared and 100 µL was dispensed into each well (final concentration of W2-FL10 at 1.5–125 µg/mL and melittin at 2–32 µg/mL). Sterile broth and the OD-adjusted inoculum were included as positive controls, while sterile broth (no inoculum) was included as a negative control. The 96-well plate was incubated for 18 h at 37°C. All the tests were performed in triplicate, with independent duplicates. Following incubation, the absorbance was measured using a microtiter plate reader at 600 nm. The 50% growth inhibition concentration (IC50) was determined using GraphPad Prism version 5 for Windows [GraphPad Software, San Diego, USA (www.graphpad.com)]. A sigmodal curve with variable slope was fitted to each set of dose-repose data according to Rautenbach et al. ([17]) using equation (1):
(1) Y=bottom+(top−bottom)/1+10^logIC50×Activity slope
The “top” and “bottom” are the maximum and minimum inhibition responses, respectively, for a particular set of dose-response data, while the activity slope is related to the Hill slope of a sigmoidal binding curve ([16]). […] The MIC value was determined for each set of dose-response data as the lowest concentration, resulting in ≥90% inhibition of the target cell growth. In addition to the MIC and IC50 inhibition parameters, an inhibition concentration factor (ICF), was calculated as outlined in Rautenbach et al. ([17]). The ICF is indicative of the concentration increase from the highest concentration where no activity is observed to the MIC of a compound.

three S. aureus strains = experiment: Membrane depolarization assay, DiSC3(5), summary; type: cell-based, Staphylococcus aureus; details: abstract
Procedure: The membrane depolarization capability (ability to disrupt membrane potential) of the W2-FL10 against S. aureus ATCC 25923, S. aureus RN4220, or MRSA Xen 30 was determined using the voltage-sensitive fluorescent probe, DiSC3(5) ([20]). Briefly, black 96-well plates were prepared with W2-FL10 at 12.5 µg/mL and 25 µg/mL, while 4 and 8 µg/mL of melittin were used as a positive depolarization control, and the plates were air dried as described in the “Antibacterial activity: broth microdilution assay” section. The S. aureus strains were inoculated into MHB and grown to the mid-log phase (OD600 of 0.5–0.6). Cells were harvested by centrifugation at 3,000 rpm for 10 min and resuspended in HEPES buffer (5 mM, pH 7.4, containing 20 mM glucose; 100 mM KCl) to OD600 of 0.05. Thereafter, DiSC3(5) (stock concentration of 400 µM in 100% DMSO) was added to the cell suspension to a final concentration of 0.4 µM, and cells were incubated in the dark at room temperature for 40 min. Cell suspensions (100 µL) were then dispensed into the wells of the black 96-well plate. […] Fluorometric readings of the plate were conducted at 1 min intervals over 12 min (readings began 60 s after cells were added to the plates) using a Tecan Spark at 622 nm excitation wavelength and 670 nm emission wavelength. […]

MRSA Xen 30 = experiment: Membrane permeability assay, propidium iodide; type: cell-based, Staphylococcus aureus; details: 25 µg/mL
Procedure: (§1) The membrane permeability capabilities of the W2-FL10 against the S. aureus strains were determined using PI ([56]). Briefly, black 96-well plates were prepared with W2-FL10 at 6.25, 12.5, and 25 µg/mL, while 4–16 µg/mL of melittin was used as a positive permeability control, and the plates were dried as described in the “Antibacterial activity: broth microdilution assay” section. The S. aureus strains were inoculated into MHB, grown to mid-log phase (OD600 of 0.5–0.6), and diluted to OD600 of 0.3. PI (stock concentration of 1 mg/mL in analytical quality H2O) was added to the cell suspension to a final concentration of 10 µg/mL and cells were incubated in the dark at room temperature for 20 min. Thereafter, 100 µL of OD-adjusted PI cells in the mid-log phase were dispensed into each well. Sterile broth and the OD-adjusted inoculum with PI were included as a non-fluorescent control, while sterile broth with PI was included as a sterility control, and melittin was included as membrane depolarization control. All the tests were performed in triplicate, with independent duplicates. Fluorometric readings of the plate were conducted in 4-min intervals over 60 min (readings began ~60 s after cells were added to the plate) using a Tecan Spark at 535 nm excitation wavelength and 617 nm emission wavelength.
(§2) The leakage kinetics or PI permeabilization kinetic was assessed using a rate parameter of ΔPI fluorescence per minute. This was done by fitting linear regression lines on the linear sections, namely 6–16 min for melittin and 6–18 min, as well as 34–50 min for W2-FL10. The rates of PI permeabilization were compared between the three S. aureus strains using a one-way ANOVA with Bonferroni’s post hoc test.

S. aureus ATCC 25923 = experiment: Membrane permeability assay, propidium iodide; type: cell-based, Staphylococcus aureus; details: 25 µg/mL
Procedure: as §1, §2

S. aureus RN4220 = experiment: Membrane permeability assay, propidium iodide; type: cell-based, Staphylococcus aureus; details: 25 µg/mL
Procedure: as §1, §2

[1] = Lipophilicity, miniaturized shake-flask log D; type: physicochemical; details: 96-well, 1-octanol/phosphate buffer pH 7.4, shaken 2 h at 25°C, HPLC-UV
Procedure: The lipophilicity of the compound was measured using a miniaturized shake-flask method, in 96-well plate format ([48]). Briefly, equal volumes of 1-octanol and phosphate buffer at pH 7.4 were added to each compound in a deep well plate. The plate was shaken vigorously for 2 h at 25°C. The phases were then carefully separated and transferred to another plate. Analysis was performed by HPLC-UV and log D values were determined from the peak areas of the compound in octanol and buffer phases.

CCCCCCCC1CC(=O)N[C@H](CC(C)C)C(=O)N[C@@H](CO)C(=O)N[C@@H]([C@@H](C)O)C(=O)N[C@H](Cc2ccccc2)C(=O)N[C@@H](CC(C)C)C(=O)O1 (stereo partly drawn) [W2-FL10, serrawettin W2-FL10]
IC50 ± SD (E. faecalis S1; 50% growth inhibition, sigmoidal curve fit, n = 3): 5.2 ± 0.5 (3) µg/mL | Selectivity index (E. faecalis S1; LC50 (CHO)/IC50): 5.6 | ICF (MIC/IC50)^2 (E. faecalis S1; inhibition concentration factor): 5.4 | MIC (E. faecalis S1; ≥90% growth inhibition, OD 600 nm, TSB, 18 h 37°C): 12.5 μg/mL and 12.5 (17.1) μg/mL | time within which membrane potential was dissipated (three S. aureus strains): ≤ 12 min | time within which ≥90% uptake in PI fluorescence was observed (MRSA Xen 30): ≤ 3,240 s | time within which ≥90% uptake in PI fluorescence was observed (S. aureus ATCC 25923): ≤ 3,360 s | time within which ≥90% uptake in PI fluorescence was observed (S. aureus RN4220): ≤ 2,760 s | logD at 2 h [1]: 2.5
